The source of these data is ChEMBL document CHEMBL1287800, “Pyridylmethylthio derivatives as VEGF inhibitors. Part 1” (Bioorg Med Chem Lett, 2010).

The test relates to HUVEC. Kind of test: Inhibition of VEGF-induced HUVEC proliferation treated 1 hr before VEGF challenge measured 3 days by WST-8 assay. The format is functional, cell-based. To be noted: Homo sapiens. Background: Tetrazolium assays rely on reduction of a dye to a coloured formazan, in cell work by metabolically active cells.

With `Clc1ccc(Nc2nnc(Cc3ccncc3)c3ccccc23)cc1` [VATALANIB], the IC50 was 33 nM.

What is called IC50 is the point on the concentration scale where inhibition reaches its midpoint. A low value points to greater potency.
